In the experiment the test system is hair follicle organ. Put plainly: Hair follicle organ cultured in vitro, length of re-grown hair. The format is cell-based, mice (F1 generation of C3H mated with BALB/C). To be noted: hair follicles cultured 12 days in the formula of amino acids and vitamins; length measured at Day 12; FIG. 7. An excerpt: At the age of 8 weeks, the F1 generation of C3H mated with BALB/C supplies the hair follicle material. By plucking the whiskers by depilating forceps, an anagen phase of the hair follicle can be induced. After three days of whisker plucking, the mice were killed and the hair follicle samples were harvested. Each selected hair follicle was then carefully isolated from the subcutaneous fat and the connective tissue surrounding the capsule was removed under a stereo-dissection microscope with fine forceps. We picked up the intact hair follicles with average size for the next step of culture, and which is in the early anagen stage, which is determined by the hair follicle conformation. Before culture, the hair fibre was first cut out at the surrounding line of the hair follicle to make the length measurement of hair growth much more easily in the future (FIG. 7). […]
Ten hair follicles were cultured in each treatment. […] The length of the hair growth beginning from the cutting site was measured at Day 12. […]
Hair follicle was observed by the Inverted microscope (Lieca DM, IL) and captured with the image by CCD connecting with a computer. The hair length was analyzed with the computer software: Northern Eclipse image system. The data of hair length were analyzed with the Duncan's new multiple range test by one way analysis of variance (ANOVA) using the SigmaStat program (2002).

For the substance “HSCF-II: recombinant fusion of human SCF, linking peptide and IGF-I; 253 amino acids, SEQ ID NO:6”, the “effect on hair re-growth (hair length)” value is “even better than each of SCF and IGF-I”.

Values taken from patent US7524505B2, “Compositions and methods for dual therapies of hair graying and balding in follicular delivery systems” (Schweitzer Biotech Company Ltd., priority 2005, dated 2009).
